Measurements published in patent US8492088B2, “Engineering enzymes through genetic selection” (priority 2007, dated 2013).
Where two headings read alike, the source gives them in different places.

What was measured:
[1] = in vivo; cited from earlier work
[2] = tested on: Gram negative and Gram-positive bacteria; conditions: series of Gram negative and Gram-positive bacteria; cited from earlier work
Candida albicans = conditions: against Candida albicans; cited from earlier work
Heliothis virescens = conditions: against Heliothis virescens; cited from earlier work
[3] = target: T1, RXR variant I268A; I310S; F313V; L436F (Homo sapiens, UniProt P19793, F313V/I268A/I310S/L436F); assay: cell-based; set-up: species or system yeast
T1 sequence (P19793 225-462 I268A/I310S/F313V/L436F): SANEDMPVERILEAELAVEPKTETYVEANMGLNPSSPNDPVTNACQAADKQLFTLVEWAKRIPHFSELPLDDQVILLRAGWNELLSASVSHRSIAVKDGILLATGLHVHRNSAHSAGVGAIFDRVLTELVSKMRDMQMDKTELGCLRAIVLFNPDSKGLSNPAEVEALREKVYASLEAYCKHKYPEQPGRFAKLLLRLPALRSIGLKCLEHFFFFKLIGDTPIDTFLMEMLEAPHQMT
Excerpt: (§1) Liquid Media: The method used for quantitation was modified from a method developed by Miller and known in the art.
(§2) The twelve plasmids rescued from the selective plates were retransformed into PJ69-4A to confirm that their phenotype is plasmid linked. The strain PJ69-4A was engineered to contain a Gal4 response element controlling expression of the LacZ gene, in addition to the ADE2 gene. […] The selection assay quantifies yeast growth occurring through transcriptional activation of the ADE2 gene, while the screen quantifies β-galactosidase activity occurring though transcriptional activation of the LacZ gene.

wtRXR = wtRXR (Homo sapiens, UniProt P19793); assay: cell-based
Excerpt: (§3) RLU=relative light units.
(§4) Mammalian Luciferase Assay: Performed with HEK 293 cells as previously described, and known in the art.
(§5) Five variants were chosen for testing in mammalian cell culture for comparison of the activation profiles (I268A;I310A;F313A;L436F,I268V;A272V;I310L;F313M, I268A;I310S;F313A;L436F, I268V;A272V;I310M;F313S;L436M, and I286A;I310M;F313A;L436T). The genes for these variants were removed from yeast expression plasmids and ligated into mammalian expression plasmids.

[4] = target: RXR variant I268V; I310V; F313S (Homo sapiens, UniProt P19793, F313S/I268V/I310V); conditions: Yeast
Excerpt: as §1, §2

[5] = target: RXR variant I268V; A272V; I310M; F313S; L436M (Homo sapiens, UniProt P19793, A272V/F313S/I268V/I310M/L436M); conditions: Yeast
Excerpt: as §1, §2
Target sequence in this assay (P19793 227-458 I268V/A272V/I310M/F313S/L436M limits assumed): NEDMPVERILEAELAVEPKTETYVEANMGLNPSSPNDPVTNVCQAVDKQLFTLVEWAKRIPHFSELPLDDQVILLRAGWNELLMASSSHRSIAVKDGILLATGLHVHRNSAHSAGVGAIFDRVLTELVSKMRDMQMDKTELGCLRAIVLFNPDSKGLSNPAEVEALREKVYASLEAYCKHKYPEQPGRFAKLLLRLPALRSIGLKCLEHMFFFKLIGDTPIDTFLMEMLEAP
Target sequence in this assay (Q9Y6Q9 1-1413 partner limits assumed): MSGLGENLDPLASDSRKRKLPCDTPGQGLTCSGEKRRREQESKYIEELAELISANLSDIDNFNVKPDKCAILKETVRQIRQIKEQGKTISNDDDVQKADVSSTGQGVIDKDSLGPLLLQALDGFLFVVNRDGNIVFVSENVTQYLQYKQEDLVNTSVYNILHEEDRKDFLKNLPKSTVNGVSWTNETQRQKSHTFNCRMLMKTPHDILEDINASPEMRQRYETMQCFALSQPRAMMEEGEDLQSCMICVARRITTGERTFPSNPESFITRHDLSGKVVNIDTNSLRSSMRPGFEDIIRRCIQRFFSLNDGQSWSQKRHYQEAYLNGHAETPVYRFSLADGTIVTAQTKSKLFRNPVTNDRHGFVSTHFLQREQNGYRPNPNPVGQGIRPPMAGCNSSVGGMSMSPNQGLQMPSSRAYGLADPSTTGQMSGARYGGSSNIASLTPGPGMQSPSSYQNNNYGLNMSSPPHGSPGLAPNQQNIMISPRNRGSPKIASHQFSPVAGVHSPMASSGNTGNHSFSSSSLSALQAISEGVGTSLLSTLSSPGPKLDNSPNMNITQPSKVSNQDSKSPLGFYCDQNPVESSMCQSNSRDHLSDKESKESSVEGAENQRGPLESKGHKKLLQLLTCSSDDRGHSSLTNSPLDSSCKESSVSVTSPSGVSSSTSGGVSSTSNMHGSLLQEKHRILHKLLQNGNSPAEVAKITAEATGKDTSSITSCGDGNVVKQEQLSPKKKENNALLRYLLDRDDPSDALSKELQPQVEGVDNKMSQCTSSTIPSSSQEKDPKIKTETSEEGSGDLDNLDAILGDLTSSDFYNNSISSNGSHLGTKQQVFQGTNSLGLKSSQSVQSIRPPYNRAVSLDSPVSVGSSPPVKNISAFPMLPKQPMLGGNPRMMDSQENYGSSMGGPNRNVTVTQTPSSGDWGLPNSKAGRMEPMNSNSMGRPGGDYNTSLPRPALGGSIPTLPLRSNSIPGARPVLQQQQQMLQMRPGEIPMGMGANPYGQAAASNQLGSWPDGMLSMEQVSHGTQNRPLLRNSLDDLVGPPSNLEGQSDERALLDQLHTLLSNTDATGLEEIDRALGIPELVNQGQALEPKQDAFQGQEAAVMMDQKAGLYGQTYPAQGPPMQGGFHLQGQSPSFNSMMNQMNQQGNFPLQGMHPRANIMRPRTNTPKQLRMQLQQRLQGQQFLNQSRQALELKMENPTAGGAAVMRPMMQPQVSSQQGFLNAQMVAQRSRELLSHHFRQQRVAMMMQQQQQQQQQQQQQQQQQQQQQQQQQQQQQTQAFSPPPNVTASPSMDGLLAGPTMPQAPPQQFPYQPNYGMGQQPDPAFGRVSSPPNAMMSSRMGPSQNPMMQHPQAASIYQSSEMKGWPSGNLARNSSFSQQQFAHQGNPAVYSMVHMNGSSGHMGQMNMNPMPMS

[6] = target: RXR variant I268A; I310A; F313A; L436F (Homo sapiens, UniProt P19793, F313A/I268A/I310A/L436F); conditions: Yeast, relative to wild type with 10 μM 9cRA
Excerpt: as §1, §2

[7] = target: RXR variant I268A; I310M; F313A; L436T (Homo sapiens, UniProt P19793, F313A/I268A/I310M/L436T); conditions: Yeast
Excerpt: as §1, §2

[8] = target: RXR variant I268L; I310M; F313V (Homo sapiens, UniProt P19793, F313V/I268L/I310M)
Sequence of RXR variant I268L; I310M; F313V (P19793 227-458 I268L/I310M/F313V limits assumed): as the sequence (P19793 227-458 I268V/A272V/I310M/F313S/L436M limits assumed) above, with V42L, V46A, S87V, M210L counted along it
Sequence of RXR variant I268L; I310M; F313V (Q9Y6Q9 1-1413 partner limits assumed): as the sequence (Q9Y6Q9 1-1413 partner limits assumed) above
Excerpt: as §1, §2

[9] = target: RXR variant I268V; A271V; I310L; F313V (Homo sapiens, UniProt P19793, A271V/F313V/I268V/I310L); conditions: Yeast
Excerpt: as §1, §2

[10] = target: RXR variant I268L; A271V; I310L; F313L (Homo sapiens, UniProt P19793, A271V/F313L/I268L/I310L); conditions: Yeast
Excerpt: as §1, §2

[11] = target: RXR variant I268A; A272V; I310A; F313A; L436F (Homo sapiens, UniProt P19793, A272V/F313A/I268A/I310A/L436F); conditions: Yeast
Excerpt: as §1, §2

[12] = target: T2, RXR variant I268V; A272V; I310L; F313M (Homo sapiens, UniProt P19793, A272V/F313M/I268V/I310L)
T2 sequence (P19793 227-462 I268V/A272V/I310L/F313M): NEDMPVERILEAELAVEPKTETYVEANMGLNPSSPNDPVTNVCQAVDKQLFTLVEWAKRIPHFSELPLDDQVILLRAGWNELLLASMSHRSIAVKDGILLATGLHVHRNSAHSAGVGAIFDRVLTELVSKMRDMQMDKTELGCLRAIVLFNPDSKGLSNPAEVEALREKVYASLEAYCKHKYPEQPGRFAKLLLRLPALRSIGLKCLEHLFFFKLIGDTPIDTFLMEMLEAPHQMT
Excerpt: as §1, §2

[13] = target: RXR variant I268L; I310V; F313I (Homo sapiens, UniProt P19793, F313I/I268L/I310V); conditions: Yeast
Sequence of RXR variant I268L; I310V; F313I (P19793 227-458 I268L/I310V/F313I limits assumed): as the sequence (P19793 227-458 I268V/A272V/I310M/F313S/L436M limits assumed) above, with V42L, V46A, M84V, S87I, M210L counted along it
Sequence of RXR variant I268L; I310V; F313I (Q9Y6Q9 1-1413 partner limits assumed): as the sequence (Q9Y6Q9 1-1413 partner limits assumed) above
Excerpt: as §1, §2

[14] = target: T3, RXR variant I268L; A271V; I310L; F313L (Homo sapiens, UniProt P19793, A271V/F313L/I268L/I310L); assay: Mammalian luciferase assay in HEK 293 cells; format: cell-based
T3 construct: expressed in transfected cells; host or cells: HEK 293
Excerpt: as §3, §4

[15] = target: T4, RXR variant I268A; A272V; I310A; F313A; L436F (Homo sapiens, UniProt P19793, A272V/F313A/I268A/I310A/L436F); assay: Mammalian luciferase assay in HEK 293 cells; format: cell-based
T4 construct: expressed in transfected cells; host or cells: HEK 293
Excerpt: as §3, §4

[16] = target: T1, RXR variant I268A; I310S; F313V; L436F; assay: cell-based
[17] = target: T5, RXR variant Q275C;I310M;F313I (Homo sapiens, UniProt P19793, F313I/I310M/Q275C); conditions: in yeast; previous best LG335 receptor Q275C;I310M;F313I; cited from earlier work
T5 construct: expressed in transfected cells; host or cells: yeast

[18] = target: RXR variant I268V; A272V; I310L; F313M (Homo sapiens, UniProt P19793, A272V/F313M/I268V/I310L); remark: listed apart in the source
Excerpt: as §3, §4, §5

[19] = target: RXR variant I268A; I310A; F313A; L436F (Homo sapiens, UniProt P19793, F313A/I268A/I310A/L436F)
Excerpt: as §3, §4, §5

[20] = target: RXR variant I268V; A272V; I310M; F313S; L436M (Homo sapiens, UniProt P19793, A272V/F313S/I268V/I310M/L436M)
Excerpt: as §3, §4, §5

[21] = target: RXR variant I268A; I310M; F313A; L436T (Homo sapiens, UniProt P19793, F313A/I268A/I310M/L436T)
Excerpt: as §3, §4, §5

wild-type RXR (GBD:RXR) = wild-type RXR (GBD:RXR) (Homo sapiens, UniProt P19793); assay: cell-based
Excerpt: as §1, §2
Three plasmids were used as controls in the screen and selection assays. […] This plasmid provides a measure of background noise in both the selection and screen assays.

[22] = target: T6, RXR variant I268A; I310S; F313V; L436F (Homo sapiens, UniProt P19793, F313V/I268A/I310S/L436F); format: cell-based; conditions: Yeast, L436F (first line, r10)
T6 construct: express the Gal4 DBD fused with a variant RXR LBD (GBD:RXR); expressed in transfected cells; host or cells: Saccharomyces cerevisiae PJ69-4A
Excerpt: as §1, §2

[23] = relative to wild type with 10 μM 9cRA
[24] = HEK 293, relative to wild type with 10 μM 9cRA

**Q.** For `CO/C(=C/C(=O)N(C)C(Cc1ccccc1)c1nccs1)CC(C)C(Cl)(Cl)Cl` (stereo not shown) [Barbamide], which molluscicidal activity [1] is on record?
**A.** potent mollucuscidal activity

**Q.** What does the source list for `C/C1=C\[C@H](C)C[C@H](C)OC(=O)C[C@H](c2ccc(O)cc2)NC(=O)[C@@H](Cc2c(Br)[nH]c3ccccc23)N(C)C(=O)[C@H](C)NC(=O)[C@@H](C)C1` [Jaspamide]?
**A.** activity against bacteria [2]: completely inactive; fungicidal activity (Candida albicans): fungicidal activity; insecticidal activity (Heliothis virescens): insecticidal

**Q.** With `CCCc1cc2c(cc1C(=O)c1ccc(C(=O)O)cc1)C(C)(C)CCC2(C)C` [LG335, 4-[(3-Propyl-5,5,8,8-tetramethyl-5,6,7,8-tetrahydro-2-naphtyl)carbonyl]benzoic Acid] as the compound, how does the EC50 ([3]; Yeast, I268A, I310S, F313V, L436F (second line, r11)) read?
**A.** 430 nM

**Q.** And the Emax ([3]; read-out: Eff (efficacy))?
**A.** 50%

**Q.** And the EC50 (wtRXR)?
**A.** 300 nM

**Q.** And the “Eff (efficacy)” value (wtRXR; HEK 293, WT, relative to wild type with 10 μM 9cRA)?
**A.** 10%

**Q.** What about the EC50 [4] of the same compound?
**A.** 440 nM

**Q.** What about the “Eff (efficacy)” value [4, 23] of the same compound?
**A.** 10%

**Q.** What about the EC50 [5] of the same compound?
**A.** 680 nM

**Q.** What about the “Eff (efficacy)” value [5, 23] of the same compound?
**A.** 30%

**Q.** And the “Eff (efficacy)” value [6]?
**A.** 70%

**Q.** And the EC50 [7]?
**A.** 610 nM

**Q.** And the “Eff (efficacy)” value [7, 23]?
**A.** 10%

**Q.** What about the “activity in the screen assay” value ([8]; I268L;I310M;F313V, high basal activity) of the same compound?
**A.** increase activity at micromolar concentrations

**Q.** What about the EC50 ([8]; Yeast, I268L, I310M, F313V) of the same compound?
**A.** 610 nM

**Q.** And the “Eff (efficacy)” value ([8]; Yeast, I268L, I310M, F313V, relative to wild type with 10 μM 9cRA)?
**A.** 20%

**Q.** What about the EC50 [9] of the same compound?
**A.** 650 nM

**Q.** And the “Eff (efficacy)” value [9, 23]?
**A.** 10%

**Q.** And the EC50 [10]?
**A.** 530 nM

**Q.** And the “Eff (efficacy)” value [10, 23]?
**A.** 20%

**Q.** What about the EC50 [11] of the same compound?
**A.** 530 nM

**Q.** What about the “Eff (efficacy)” value [11, 23] of the same compound?
**A.** 30%

**Q.** What about the “Eff (efficacy)” value ([12]; Yeast, I268V, A272V, I310L, F313M, relative to wild type with 10 μM 9cRA) of the same compound?
**A.** 60%

**Q.** And the EC50 ([12]; in yeast, I268V;A272V;I310L;F313M)?
**A.** 40 nM

**Q.** What about the “improvement in EC50 over the previous best LG335 receptor, Q275C;I310M;F313I” value ([12]; in yeast, LG335-I268V;A272V;I310L;F313M ligand receptor pair) of the same compound?
**A.** 25 fold

**Q.** What about the EC50 [13] of the same compound?
**A.** >2000 nM

**Q.** And the “Eff (efficacy)” value [13, 23]?
**A.** 10%

**Q.** What about the EC50 [14] of the same compound?
**A.** 1 nM

**Q.** And the EC50 [15]?
**A.** 1 nM

**Q.** What about the Emax ([16]; HEK293, read-out: Eff (efficacy)) of the same compound?
**A.** 20%

**Q.** And the EC50 ([16]; HEK 293, I268A, I310S, F313V, L436F (second line, r11))?
**A.** 690 nM

**Q.** What about the EC50 [17] of the same compound?
**A.** 1000 nM

**Q.** And the EC50 ([18]; HEK 293)?
**A.** 1 nM

**Q.** What about the “Eff (efficacy)” value [18, 24] of the same compound?
**A.** 30%

**Q.** And the EC50 ([19]; HEK 293)?
**A.** 30 nM

**Q.** What about the “Eff (efficacy)” value [19, 24] of the same compound?
**A.** 50%

**Q.** What about the EC50 ([20]; HEK 293) of the same compound?
**A.** 180 nM

**Q.** And the “Eff (efficacy)” value [20, 24]?
**A.** 30%

**Q.** And the EC50 ([21]; HEK 293)?
**A.** 140 nM

**Q.** And the “Eff (efficacy)” value [21, 24]?
**A.** 20%

**Q.** What about the EC50 (wild-type RXR (GBD:RXR)) of the same compound?
**A.** > 10000 nM

**Q.** What about the “Eff (efficacy)” value (wild-type RXR (GBD:RXR); Yeast, WT, maximum increase in activation relative to wild type with 10 μM 9cRA) of the same compound?
**A.** 10%

**Q.** And the EC50 [22]?
**A.** 470 nM

**Q.** What about the “Eff (efficacy)” value [22, 23] of the same compound?
**A.** 60%
